Patent US10813909B2 (THE REGENTS OF THE UNIVERSITY OF CALIFORNIA, priority 2016, dated 2020)
Entries after “also recorded” stand apart in the source; their conditions may differ.

Experiments:
BIRC5 = assay: Cardiac glycosides, BIRC5 expression in pancreatic cancer; format: cell-based
[1] = mice; cited from earlier work
BIRC5 promoter = assay: High-throughput drug screening with BIRC5 synthetic promoter; format: cell-based, human; conditions: high-throughput screening of FDA-approved drug libraries, MIA PaCa2 cells
Description: FIG. 12 is a graph illustrating BIRC5 SP high-throughput (HTS) drug screening in MIA PaCa2 cells, in accordance with one or more embodiments of the invention;
Pancreatic ductal adenocarcinoma (PDAC) is one of the most deadly forms of cancer and almost all patients with PDAC succumb to this lethal disease within months of diagnosis. To fight against PDAC, we utilized the concept of an “actionable gene”, on which action can be taken to alter disease progression or guide choice of therapy. We have identified actionable gene, BIRC5, for PDAC using microarray data sets and our own RNA-Seq data of PDAC patient specimens. […] .

AsPC1 cells = assay: Cell viability, AsPC1; format: cell-based, human; conditions: in vitro
MIA PaCa2 cells = assay: Cell viability/proliferation, MIA PaCa2; format: cell-based, human; conditions: in vitro; metformin 500 μM, simvastatin 4 μM, digoxin 50 nM, alone or combined; paclitaxel 100 nM where added
[2] = system: patient-derived pancreatic cancer cell line #15 (PDCL-15); assay: Cell viability/proliferation (CellTiter-Glo, Gaussia luciferase), patient-derived line #15; format: cell-based, human; conditions: in vitro; metformin 500 μM, simvastatin 4 μM, digoxin 50 nM, alone or combined; paclitaxel 100 nM where added
BIRC5 mRNA [3] = assay: BIRC5 mRNA expression in PDCL15 in vitro; format: cell-based, human
[4] = system: patient-derived pancreatic cancer cell line #5 (PDCL-5); assay: Cell viability/proliferation (CellTiter-Glo, Gaussia luciferase), patient-derived line #5; format: cell-based, human; conditions: in vitro; metformin 500 μM, simvastatin 4 μM, digoxin 50 nM, alone or combined; paclitaxel 100 nM where added
Capan2 cells = assay: Cell viability, Capan2; format: cell-based, human; conditions: in vitro, with and without paclitaxel
PANC1 cells = assay: Cell viability/proliferation, PANC1; format: cell-based, human; conditions: in vitro; metformin 500 μM, simvastatin 4 μM, digoxin 50 nM, alone or combined; paclitaxel 100 nM where added
BIRC5 mRNA [5] = assay: BIRC5 mRNA expression in PDCL5 in vitro; format: cell-based, human
DUSP15 and RHOB = assay: Cell death/apoptosis related gene expression in PDCL5 (RNA-Seq, real-time PCR); conditions: PDCL5 in vitro
[6] = system: HK2, LDHA, LDHB, ENO2, ENO1; assay: Transcriptome analysis of glycolysis/TCA cycle/Warburg effect genes in pancreatic cancer cell lines; conditions: patient-derived and commercial pancreatic cancer cell lines
[7] = system: pancreatic cancer cell lines; assay: Proliferation, viability and apoptosis of pancreatic cancer cell lines in vitro (line not specified); format: cell-based, human

| SMILES | BIRC5 expression in pancreatic cancer (BIRC5) | cell viability / proliferation, MIA PaCa2 (MIA PaCa2 cells) | BIRC5 mRNA expression, PDCL #15 (BIRC5 mRNA [3]) | BIRC5 mRNA expression, PDCL #5 (BIRC5 mRNA [5]) | further results |
| --- | --- | --- | --- | --- | --- |
| CC(=O)O[C@H]1C[C@H](O[C@H]2[C@@H](O)C[C@H](O[C@H]3[C@@H](O)C[C@H](O[C@H]4CC[C@@]5(C)[C@H](CC[C@@H]6[C@@H]5C[C@@H](O)[C@]5(C)[C@@H](C7=CC(=O)OC7)CC[C@]65O)C4)O[C@@H]3C)O[C@@H]2C)O[C@H](C)[C@H]1O[C@@H]1O[C@H](CO)[C@@H](O)[C@H](O)[C@H]1O [Lanatoside C] | inhibit BIRC5 expression |  |  |  |  |
| C[C@H]1O[C@@H](O[C@H]2[C@@H](O)C[C@H](O[C@H]3[C@@H](O)C[C@H](O[C@H]4CC[C@@]5(C)[C@H](CC[C@@H]6[C@@H]5C[C@@H](O)[C@]5(C)[C@@H](C7=CC(=O)OC7)CC[C@]65O)C4)O[C@@H]3C)O[C@@H]2C)C[C@H](O)[C@@H]1O [Digoxin, digoxin] | inhibit BIRC5 expression | suppresses; also recorded: suppress | suppress | suppress | Lethal Dose (LD50) [1]: 4 mg/kg; expression from the BIRC5 promoter (BIRC5 promoter): target BIRC5; cell viability, AsPC1 (AsPC1 cells): suppress; cell viability / proliferation, patient-derived pancreatic cancer cell #15 [2]: suppresses; also recorded: suppress; cell viability / proliferation, patient-derived pancreatic cancer cell #5 [4]: suppresses; also recorded: suppress; cell viability, Capan2 (Capan2 cells): suppress; cell viability / proliferation, PANC1 (PANC1 cells): suppresses; also recorded: suppress; cell death/apoptosis related gene expression (DUSP15, RHOB) (DUSP15 and RHOB): do not have an effect |
| C[C@]12CC[C@H](O)C[C@H]1CC[C@@H]1[C@@H]2CC[C@]2(C)[C@@H](c3ccc(=O)oc3)CC[C@]12O [bufalin] | inhibit BIRC5 expression |  |  |  |  |
| CC[C@H](C)C(=O)O[C@H]1C[C@@H](C)C=C2C=C[C@H](C)[C@H](CC[C@@H]3C[C@@H](O)CC(=O)O3)[C@H]21 [Lovastatin, lovastatin] |  | suppresses | suppress | suppress |  |
| CN(C)C(=N)N=C(N)N [Metformin, metformin] |  | suppresses; also recorded: suppress | suppress | suppress | expression from the BIRC5 promoter (BIRC5 promoter): target BIRC5; cell viability, AsPC1 (AsPC1 cells): suppress; cell viability / proliferation, patient-derived pancreatic cancer cell #15 [2]: suppresses; also recorded: suppress; glycolysis / TCA cycle / Warburg effect related gene expression [6]: inhibitory effect; cell viability / proliferation, patient-derived pancreatic cancer cell #5 [4]: suppresses; also recorded: suppress; cell viability, Capan2 (Capan2 cells): suppress; cell viability / proliferation, PANC1 (PANC1 cells): suppresses; also recorded: suppress; cell proliferation / viability, pancreatic cancer cell lines [7]: suppresses; cell death/apoptosis related gene expression (DUSP15, RHOB) (DUSP15 and RHOB): do not have an effect |
| C[C@@H]1O[C@@H](O[C@H]2C[C@@H](O)[C@]3(CO)[C@H]4[C@H](O)C[C@]5(C)[C@@H](C6=CC(=O)OC6)CC[C@]5(O)[C@@H]4CC[C@]3(O)C2)[C@H](O)[C@H](O)[C@H]1O [Ouabain, ouabain] | inhibit BIRC5 expression | suppresses |  |  |  |
| CC(C)n1c(/C=C/C(O)CC(O)CC(=O)O)c(-c2ccc(F)cc2)c2ccccc21 (centres unmarked) [fluvastatin] |  | suppresses | suppress | suppress |  |
| C[C@]12CC[C@H](O)C[C@H]1CC[C@@H]1[C@@H]2CC[C@]2(C)[C@@H](C3=CC(=O)OC3)CC[C@]12O [Digitoxigenin] | inhibit BIRC5 expression |  |  |  |  |
